Converted amounts (≈) assume the structure as drawn. The source made the active and inactive calls. The calls are words filed in the database; no cut-off is given here.
How the values were obtained:
[1] = Kinetic solubility of the compound; type: physicochemical; details: read-out: Kinetic_solubility
[2] = Intrinsic clearance in human liver microsomes; type: ADME; details: read-out: CLH
[3] = Passive permeability across RRCK cells; type: ADME, cell-based, Canis lupus familiaris, MDCKII-LE; details: dog, MDCK; read-out: permeability
[4] = target: hERG (KCNH2) (Homo sapiens, UniProt Q12809); experiment: Inhibition of dofetilide binding to human ERG at 10 uM relative to control; details: probe dofetilide
Sequence of hERG (KCNH2) (Q12809 whole entry): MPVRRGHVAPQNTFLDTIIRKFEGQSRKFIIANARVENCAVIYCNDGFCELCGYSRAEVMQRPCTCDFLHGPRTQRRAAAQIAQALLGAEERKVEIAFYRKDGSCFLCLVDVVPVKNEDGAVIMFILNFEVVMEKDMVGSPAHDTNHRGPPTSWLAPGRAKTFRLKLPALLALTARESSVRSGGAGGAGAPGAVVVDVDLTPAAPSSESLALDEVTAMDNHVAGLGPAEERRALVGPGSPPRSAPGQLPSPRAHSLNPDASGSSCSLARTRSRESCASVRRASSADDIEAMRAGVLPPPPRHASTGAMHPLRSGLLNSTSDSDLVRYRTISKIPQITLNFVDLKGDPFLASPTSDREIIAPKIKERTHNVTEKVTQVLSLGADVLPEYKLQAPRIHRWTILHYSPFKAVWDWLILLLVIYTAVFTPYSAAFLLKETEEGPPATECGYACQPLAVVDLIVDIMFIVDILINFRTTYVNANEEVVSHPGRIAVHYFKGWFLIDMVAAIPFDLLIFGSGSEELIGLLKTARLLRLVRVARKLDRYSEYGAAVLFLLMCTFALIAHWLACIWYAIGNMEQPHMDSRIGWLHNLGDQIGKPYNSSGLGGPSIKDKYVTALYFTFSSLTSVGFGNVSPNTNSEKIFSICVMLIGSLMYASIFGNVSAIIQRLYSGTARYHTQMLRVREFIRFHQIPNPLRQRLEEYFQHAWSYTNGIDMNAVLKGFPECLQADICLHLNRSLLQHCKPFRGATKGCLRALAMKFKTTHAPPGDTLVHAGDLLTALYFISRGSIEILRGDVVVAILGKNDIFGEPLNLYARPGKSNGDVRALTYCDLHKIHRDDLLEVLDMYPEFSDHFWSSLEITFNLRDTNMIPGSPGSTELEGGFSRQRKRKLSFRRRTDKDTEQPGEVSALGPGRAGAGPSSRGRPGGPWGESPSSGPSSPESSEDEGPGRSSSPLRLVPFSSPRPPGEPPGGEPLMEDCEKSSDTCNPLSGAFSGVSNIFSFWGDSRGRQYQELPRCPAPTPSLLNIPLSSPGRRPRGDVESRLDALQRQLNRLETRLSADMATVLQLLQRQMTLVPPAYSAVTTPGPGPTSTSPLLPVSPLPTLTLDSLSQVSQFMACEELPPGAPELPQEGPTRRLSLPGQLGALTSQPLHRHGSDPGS

[5] = target: T1, Hexokinase-4 (Homo sapiens, UniProt P35557)
T1 sequence (P35557 whole entry): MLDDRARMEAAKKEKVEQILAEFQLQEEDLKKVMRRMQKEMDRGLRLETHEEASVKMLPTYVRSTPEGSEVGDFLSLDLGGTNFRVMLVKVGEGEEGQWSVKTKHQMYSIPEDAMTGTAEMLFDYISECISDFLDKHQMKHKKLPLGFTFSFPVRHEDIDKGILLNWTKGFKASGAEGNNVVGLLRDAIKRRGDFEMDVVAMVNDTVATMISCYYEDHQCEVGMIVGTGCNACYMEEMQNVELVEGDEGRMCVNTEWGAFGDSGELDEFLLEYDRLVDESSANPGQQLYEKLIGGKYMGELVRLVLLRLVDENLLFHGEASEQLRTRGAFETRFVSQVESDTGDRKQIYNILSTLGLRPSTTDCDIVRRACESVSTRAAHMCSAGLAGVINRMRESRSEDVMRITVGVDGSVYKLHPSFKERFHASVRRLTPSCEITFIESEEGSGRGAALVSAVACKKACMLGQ
Description: Activation of recombinant human glucokinase assessed as formation of glucose-6-phosphate by G6PDH/NADP coupled assay

[6] = target: Voltage-gated inwardly rectifying potassium channel KCNH2 (Homo sapiens, UniProt Q12809); experiment: Inhibition of dofetilide binding to human ERG
Sequence of Voltage-gated inwardly rectifying potassium channel KCNH2 (Q12809 whole entry): as the sequence (Q12809 whole entry) above

[7] = target: T2, Hexokinase-4 (Rattus norvegicus, UniProt P17712); experiment: Activation of rat glucokinase
T2 sequence (P17712 whole entry): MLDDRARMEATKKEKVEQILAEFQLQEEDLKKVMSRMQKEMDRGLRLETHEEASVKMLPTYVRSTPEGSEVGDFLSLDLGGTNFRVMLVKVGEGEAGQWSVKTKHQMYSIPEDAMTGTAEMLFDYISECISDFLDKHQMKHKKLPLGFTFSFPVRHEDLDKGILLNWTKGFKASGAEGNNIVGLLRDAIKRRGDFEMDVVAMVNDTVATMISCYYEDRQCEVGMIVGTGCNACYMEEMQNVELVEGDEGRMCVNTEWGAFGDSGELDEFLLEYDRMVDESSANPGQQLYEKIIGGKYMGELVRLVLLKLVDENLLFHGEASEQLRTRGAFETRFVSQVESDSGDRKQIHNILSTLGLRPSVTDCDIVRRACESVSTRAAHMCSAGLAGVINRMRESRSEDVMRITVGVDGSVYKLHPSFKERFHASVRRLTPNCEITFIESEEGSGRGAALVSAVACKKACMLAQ

[8] = Selectivity ratio of EC50 for rat glucokinase to EC50 for human glucokinase
[9] = Drug excretion in Sprague-Dawley rat urine assessed as parent compound level at 1 mg/kg, iv; type: ADME, organism-based; design: dose 1 mg/kg, route intravenous; details: read-out: Drug excretion
[10] = Half life in female Sprague-Dawley rat at 1 mg/kg, iv and po; type: ADME, organism-based; design: dose 1 mg/kg, route oral; details: in vivo
[11] = system: Rattus norvegicus; experiment: Volume of distribution at steady state in female Sprague-Dawley rat at 1 mg/kg, iv and po; type: ADME, organism-based; design: dose 1 mg/kg, route oral; details: in vivo
[12] = system: Rattus norvegicus; experiment: Antidiabetic activity in po dosed Sprague-Dawley rat assessed as reduction of post-prandial glucose excursion administered for 60 mins followed by glucose challenge measured up to 120 mins by OGTT; type: functional, organism-based
[13] = Half life in male Sprague-Dawley rat at 1 mg/kg, iv and po; type: ADME, organism-based; design: dose 1 mg/kg, route oral; details: in vivo
[14] = system: Pancreatic islet; experiment: Induction of 9 to 13 mM glucose-induced insulin secretion in rat dispersed pancreatic islet static culture at 0.4 to 12 uM; type: functional
[15] = Oral bioavailability in Beagle dog at 5 mg/kg; type: ADME, organism-based, Canis lupus familiaris; details: in vivo
[16] = Oral bioavailability in female Sprague-Dawley rat at 1 mg/kg; type: ADME, organism-based; details: in vivo
[17] = Oral bioavailability in cynomolgus monkey at 3 mg/kg; type: ADME, organism-based, Macaca fascicularis; details: in vivo
[18] = Volume of distribution at steady state in cynomolgus monkey at 0.5 mg/kg, iv and 3 mg/kg, po; type: ADME, organism-based, Macaca fascicularis; details: in vivo, read-out: Vdss
[19] = system: Pancreatic islet; experiment: Induction of > 22 mM glucose-induced insulin secretion in rat dispersed pancreatic islet static culture at 0.4 to 12 uM; type: functional
[20] = Oral bioavailability in male Sprague-Dawley rat at 1 mg/kg; type: ADME, organism-based; details: in vivo
[21] = system: Rattus norvegicus; experiment: Volume of distribution at steady state in male Sprague-Dawley rat at 1 mg/kg, iv and po; type: ADME, organism-based; design: dose 1 mg/kg, route oral; details: in vivo
[22] = system: Pancreatic islet; experiment: Induction of 3 to 5 mM glucose-induced insulin secretion in rat dispersed pancreatic islet static culture at 4 to 12 uM; type: functional
[23] = Clearance in cynomolgus monkey at 0.5 mg/kg, iv and 3 mg/kg, po; type: ADME, organism-based, Macaca fascicularis; details: in vivo
[24] = Half life in cynomolgus monkey at 0.5 mg/kg, iv and 3 mg/kg, po; type: ADME, organism-based, Macaca fascicularis; details: in vivo
[25] = Volume of distribution at steady state in Beagle dog at 0.5 mg/kg, iv and 5 mg/kg, po; type: ADME, organism-based, Canis lupus familiaris; details: in vivo, read-out: Vdss
[26] = Clearance in Beagle dog at 0.5 mg/kg, iv and 5 mg/kg, po; type: ADME, organism-based, Canis lupus familiaris; details: in vivo
[27] = Half life in Beagle dog at 0.5 mg/kg, iv and 5 mg/kg, po; type: ADME, organism-based, Canis lupus familiaris; details: in vivo
[28] = Drug excretion in bile duct-cannulated rat bile assessed as parent compound level at 5 mg/kg, iv; type: ADME, organism-based; design: dose 5 mg/kg, route intravenous; details: read-out: Drug excretion
[29] = system: Pancreatic islet; experiment: Induction of 3 to 5 mM glucose-induced insulin secretion in rat dispersed pancreatic islet static culture at 0.4 to 1.2 uM; type: functional

`Cc1cnc(NC(=O)c2cc(Oc3ccc(C(=O)N(C)C)nc3)c3cc(C)oc3c2)cn1` showed a solubility kinetic [1] of 418 µM (≈ 180 µg/mL), a CLint scaled [2] of 11.6 mL/min/kg and a Papp [3] of 28.5 ×10⁻⁶ cm/s. It also gave an inhibition at 10 µM [4] of 5% and an EC50 [5] of 480 nM.
Compound `Cc1cnc(NC(=O)c2cc(Oc3ccc(C#N)cc3)c3cc(C)oc3c2)cn1` has a solubility kinetic [1] of 2 µM (≈ 0.769 µg/mL), a CLint scaled [2] of 29 mL/min/kg and an IC50 [6] of 4 µM. It also gave a Papp [3] of 1.5 ×10⁻⁶ cm/s and an EC50 [5] of 3060 nM.
Work on `Cc1cnc(NC(=O)c2cc(Oc3cnc(C(=O)N(C)C)cn3)c3cc(C)oc3c2)cn1` yielded a solubility kinetic [1] of 176 µM (≈ 76.1 µg/mL) and a CLint scaled [2] of less than 8.5 mL/min/kg.
Compound `COCc1ccc(Oc2cc3[nH]c(-c4ccccn4)nc3cc2[C@H]2CCCN2C(C)=O)cn1` has an EC50 [7] of 187 nM, a Ratio EC50 [8] of less than 4 and an EC50 [5] of 88 nM.
`Cc1cc2c(Oc3cnc(C(=O)N4CC(C)(O)C4)cn3)cc(C(=O)Nc3cnccn3)cc2o1` showed a solubility kinetic [1] of 137 µM (≈ 63.1 µg/mL), a CLint scaled [2] of less than 8 mL/min/kg and a Papp [3] of 9 ×10⁻⁶ cm/s. For the same compound, the inhibition at 10 µM [4] was 10% and the EC50 [5] was greater than 5000 nM.
For `Cc1ccc(Oc2cc(C(=O)Nc3cnc(C)cn3)cc3oc(C)cc23)cc1`, the solubility kinetic [1] was 18 µM (≈ 6.72 µg/mL), the CLint scaled [2] was 47 mL/min/kg and the Papp [3] was 0.3 ×10⁻⁶ cm/s. For the same compound, the EC50 [5] was 6610 nM.
Compound `Cc1cnc(NC(=O)c2cc(Oc3cnc(C(=O)N4CCCCC4)cn3)c3cc(C)oc3c2)cn1` has a solubility kinetic [1] of 24 µM (≈ 11.3 µg/mL), a CLint scaled [2] of 18.2 mL/min/kg and a Papp [3] of 13.3 ×10⁻⁶ cm/s. The inhibition at 10 µM [4] was 5% and the EC50 [5] was 261 nM.
For `Cc1cnc(NC(=O)c2cc(Oc3ncc(C(=O)N(C)C)cn3)c3cc(C)oc3c2)cn1`, the solubility kinetic [1] was 485 µM (≈ 210 µg/mL), the CLint scaled [2] was less than 8 mL/min/kg and the Papp [3] was 34.7 ×10⁻⁶ cm/s. For the same compound, the inhibition at 10 µM [4] was 0% and the EC50 [5] was greater than 20 nM.
`Cc1cnc(NC(=O)c2cc(Oc3ccc(C(=O)N(C)C)cc3)c3cc(C)oc3c2)cn1` gave a CLint scaled [2] of 17 mL/min/kg, a Papp [3] of 5.9 ×10⁻⁶ cm/s and an EC50 [5] of 92 nM.
In the case of `Cc1cc2c(Oc3cnc(C(=O)N4CC(C)C4)cn3)cc(C(=O)Nc3cnccn3)cc2o1`, the solubility kinetic [1] is reported as 49 µM (≈ 21.8 µg/mL), the CLint scaled [2] is reported as less than 9.6 mL/min/kg and the Papp [3] is reported as 14.9 ×10⁻⁶ cm/s. The inhibition at 10 µM [4] was 11% and the EC50 [5] was 393 nM.
`CS(=O)(=O)c1ccc([C@@H](CC2CCCC2)C(=O)Nc2nccs2)cc1` [Ro-281675] gave an EC50 [7] of 235 nM.
In the case of `Cc1cc2c(Oc3cnc(C(=O)N4CC(C)(C)C4)cn3)cc(C(=O)Nc3cnccn3)cc2o1`, the solubility kinetic [1] is reported as 78 µM (≈ 35.8 µg/mL), the CLint scaled [2] is reported as 21.2 mL/min/kg and the Papp [3] is reported as 7.7 ×10⁻⁶ cm/s. For the same compound, the EC50 [5] was 705 nM.
In the case of `Cc1cc2c(Oc3cnc(C(=O)N(C)C)cn3)cc(C(=O)Nc3cnc(C(F)(F)F)cn3)cc2o1`, the solubility kinetic [1] is reported as 6 µM (≈ 2.92 µg/mL), the CLint scaled [2] is reported as 16.1 mL/min/kg and the Papp [3] is reported as 9.7 ×10⁻⁶ cm/s. The inhibition at 10 µM [4] was 18% and the EC50 [5] was 167 nM.
Work on `Cc1cnc(NC(=O)c2cc(Oc3cnc(C(=O)N(C)C)nc3)c3cc(C)oc3c2)cn1` [NERIGLIATIN] yielded a dose excreted [9] of 0.26%, a half-life [10] of 72 min and a Vdss [11] of 1.1 L/kg. The Activity [12] was “Dose-dependent effect”, the half-life [13] was 258 min and the solubility kinetic [1] was 463 µM (≈ 200 µg/mL). For the same compound, the CLint scaled [2] was less than 8 mL/min/kg, the Activity [14] was “Active” and the bioavailability [15] was 12%. The bioavailability [16] was 77%, the bioavailability [17] was 78% and the Vd [18] was 0.83 L/kg. For the same compound, the Activity [19] was “inactive”, the bioavailability [20] was 23% and the Vdss [21] was 2.1 L/kg. The Activity [22] was “Active”, the clearance [23] was 9.4 mL/min/kg and the half-life [24] was 108 min. For the same compound, the Vd [25] was 0.65 L/kg, the clearance [26] was 2.6 mL/min/kg and the half-life [27] was 198 min. For the same compound, the dose excreted [28] was 2.3% and the Activity [29] was “inactive”.
Work on `CNC(=O)c1cnc(Oc2cc(C(=O)Nc3cnc(C)cn3)cc3oc(C)cc23)cn1` yielded a CLint scaled [2] of 10.1 mL/min/kg, a Papp [3] of 20.9 ×10⁻⁶ cm/s and an inhibition at 10 µM [4] of 0%. The EC50 [5] was greater than 5000 nM.

— ChEMBL document CHEMBL3217627, “Designing glucokinase activators with reduced hypoglycemia risk: discovery of N,N-dimethyl-5-(2-methyl-6-((5-methylpyrazin-2-yl)-carbamoyl)benzofuran-4-yloxy)pyrimidine-2-carboxamide as a clinical candidate for the treatment of type 2 diabetes mellitus” (Medchemcomm, 2011)
